Experimental data reported in article PMC8880132 (Molecules, 2022).
Read-outs that look alike come from different tables or passages of the source.

What was measured:
[1] = tested on: breast cancer resistance protein (BCRP); settings: cited from earlier work
[2] = Stability of LEN and TEL in rat plasma under various storage conditions; format: in vitro ADME; settings: for Stability, measured concentration Mean ± SD / Stability, Accuracy (RE%) vs nominal concentration: rat plasma; for Stability, measured concentration Mean ± SD: n = 6
Description: QC samples with six replicates of each concentration were used to assess the stability of the samples under different processing and storage conditions. […] The long-term stability was carried out by freezing at −80 °C for 30 days, and the freeze–thaw stability was verified by repeatedly freezing and thawing three times.

P-glycoprotein (P-gp) = settings: cited from earlier work
[3] = cited from earlier work
[4] = Pharmacokinetic drug-drug interaction study in rats after oral administration; format: in vivo, SD (Sprague-Dawley) rats; settings: for Cmax / Tmax / half-life / AUC(0-inf) / AUC(0-t): male, Sprague-Dawley, rat, plasma, po; for Cmax / Tmax / half-life / AUC(0-inf) / AUC(0-t) / CLz / Vz: rat plasma; for Tmax: median (range); for half-life: read-out: t1/2z (converted)
Description: SPF (specific pathogen free)-grade male SD (Sprague-Dawley) rats (weight: 230 ± 10 g) were purchased from Beijing Weitong Lihua Experimental Animal Technology Co. Ltd. (Beijing, China). Before starting the experiment, the rats were given sufficient food and water and kept under suitable conditions for one week. Suitable conditions included suitable temperature (23–27 °C), suitable humidity (50 ± 10%), and 12-h light–12-h dark diurnal cycle. All animals were fasted for 12 h before the start of the experiment, but they were allowed to drink water freely. All the animal experimental protocols were conducted in accordance with the UK Animals (Scientific Procedures) Act 1986 and under the guideline approved by the Ethics Committee of Hebei General Hospital (Shijiazhuang, China; No. 2021131).
Twenty-four healthy rats were randomly and equally divided into four groups (six animals in each group). […] Approximately 0.3 mL of blood was collected from the orbital venous plexus in a heparinized centrifuge tube from each rat at 0.25, 0.5, 1, 2, 3, 4, 6, 8, 10, 12, 24, 48, 72, and 96 h after administration. […] The blood samples were collected from each rat at 0.17, 0.33, 0.5, 0.75, 1, 2, 3, 4, 6, 8, 10, 12, 24, 48, and 72 h after administration. Blood samples were centrifuged at 3500 rpm for 10 min, and the plasma samples (supernatant) were harvested and stored at −80 °C.
The main pharmacokinetic parameters are presented as mean ± standard deviation and statistically analyzed using SPSS 25.0 software package (SPSS Inc., Chicago, IL, USA). A p-value of <0.05 was considered statistically significant.

[5] = cited from earlier work; remark: listed apart in the source
[6] = tested on: multidrug resistance-associated protein 2 (MRP2); settings: in vitro studies; cited from earlier work
[7] = autosampler for 24 h, high QC (800 ng/mL LEN, 400 ng/mL TEL)
[8] = autosampler for 24 h, low QC (0.5 ng/mL LEN, 0.25 ng/mL TEL)
[9] = freeze–thaw three times, high QC (800 ng/mL LEN, 400 ng/mL TEL)
[10] = freeze–thaw three times, low QC (0.5 ng/mL LEN, 0.25 ng/mL TEL)
[11] = freeze–thaw three times, medium QC (150 ng/mL LEN, 75 ng/mL TEL)
[12] = room temperature for 8 h, high QC (800 ng/mL LEN, 400 ng/mL TEL)
[13] = room temperature for 8 h, low QC (0.5 ng/mL LEN, 0.25 ng/mL TEL)
[14] = room temperature for 8 h, medium QC (150 ng/mL LEN, 75 ng/mL TEL)
[15] = −80 °C for 30 days, high QC (800 ng/mL LEN, 400 ng/mL TEL)
[16] = −80 °C for 30 days, low QC (0.5 ng/mL LEN, 0.25 ng/mL TEL)
[17] = −80 °C for 30 days, medium QC (150 ng/mL LEN, 75 ng/mL TEL)
[18] = 1.2 mg/kg, LEN 1.2 mg/kg oral, alone
[19] = 1.2 mg/kg, LEN 1.2 mg/kg oral, with TEL (4 mg/kg)
[20] = LEN 1.2 mg/kg oral, with TEL (4 mg/kg)
[21] = autosampler for 24 h, medium QC (150 ng/mL LEN, 75 ng/mL TEL)
[22] = TEL 4 mg/kg with LEN 1.2 mg/kg vs TEL alone, rats, oral
[23] = 4 mg/kg, TEL 4 mg/kg oral, alone
[24] = 4 mg/kg, TEL 4 mg/kg oral, with LEN (1.2 mg/kg)

COc1cc2nccc(Oc3ccc(NC(=O)NC4CC4)c(Cl)c3)c2cc1C(N)=O [LEN, Lenvatinib]
BCRP interaction [1]: substrate | Stability, measured concentration Mean ± SD [2, 7]: 835.67 ± 34.60 ng/mL | Stability, measured concentration Mean ± SD [2, 8]: 0.48 ± 0.03 ng/mL | Stability, measured concentration Mean ± SD [2, 9]: 787.50 ± 40.13 ng/mL | Stability, measured concentration Mean ± SD [2, 10]: 0.48 ± 0.05 ng/mL | Stability, measured concentration Mean ± SD [2, 11]: 150.17 ± 14.85 ng/mL | Stability, measured concentration Mean ± SD [2, 12]: 751.50 ± 19.74 ng/mL | Stability, measured concentration Mean ± SD [2, 13]: 0.52 ± 0.03 ng/mL | Stability, measured concentration Mean ± SD [2, 14]: 149.33 ± 11.15 ng/mL | Stability, measured concentration Mean ± SD [2, 15]: 808.00 ± 59.16 ng/mL | Stability, measured concentration Mean ± SD [2, 16]: 0.53 ± 0.05 ng/mL | Stability, measured concentration Mean ± SD [2, 17]: 154.00 ± 4.77 ng/mL | P-gp interaction (P-glycoprotein (P-gp)): substrate | water solubility [3]: poor water solubility | Cmax [4, 18]: 498 ± 107 ng/mL | Tmax [4, 18]: 2.5 h | half-life [4, 18]: 8.75 ± 2.55 h | AUC(0-inf) [4, 19]: 5860 ± 1350 ng·h/mL | AUC(0-t) [4, 19]: 5860 ± 1350 ng·h/mL | Cmax [4, 19]: 644 ± 211 ng/mL | half-life [4, 19]: 9.32 ± 4.69 h | CLz ([4]; LEN 1.2 mg/kg oral, alone): 3.5 ± 0.33 mL/min/kg | Vz ([4]; LEN 1.2 mg/kg oral, alone): 2.69 ± 0.79 L/kg | CLz [4, 20]: 3.67 ± 0.83 mL/min/kg | Vz [4, 20]: 2.92 ± 1.60 L/kg

CCCc1nc2c(C)cc(-c3nc4ccccc4n3C)cc2n1Cc1ccc(-c2ccccc2C(=O)O)cc1 [TEL, Telmisartan]
BCRP interaction ([1]; in vitro studies): substrate and inhibitor | Stability, Accuracy (RE%) vs nominal concentration [2, 7]: −0.38% | Stability, measured concentration Mean ± SD [2, 7]: 398.50 ± 22.76 ng/mL | Stability, Accuracy (RE%) vs nominal concentration [2, 8]: −4.33% | Stability, measured concentration Mean ± SD [2, 8]: 0.24 ± 0.02 ng/mL | Stability, Accuracy (RE%) vs nominal concentration [2, 21]: −1.76% | Stability, measured concentration Mean ± SD [2, 21]: 73.68 ± 1.59 ng/mL | Stability, Accuracy (RE%) vs nominal concentration [2, 9]: −2.17% | Stability, measured concentration Mean ± SD [2, 9]: 391.33 ± 25.73 ng/mL | Stability, Accuracy (RE%) vs nominal concentration [2, 10]: −0.47% | Stability, measured concentration Mean ± SD [2, 10]: 0.25 ± 0.01 ng/mL | Stability, Accuracy (RE%) vs nominal concentration [2, 11]: −3.53% | Stability, measured concentration Mean ± SD [2, 11]: 72.35 ± 2.51 ng/mL | Stability, Accuracy (RE%) vs nominal concentration [2, 12]: −7.58% | Stability, measured concentration Mean ± SD [2, 12]: 369.67 ± 6.98 ng/mL | Stability, Accuracy (RE%) vs nominal concentration [2, 13]: −3.53% | Stability, measured concentration Mean ± SD [2, 13]: 0.24 ± 0.01 ng/mL | Stability, Accuracy (RE%) vs nominal concentration [2, 14]: −2.36% | Stability, measured concentration Mean ± SD [2, 14]: 73.23 ± 5.40 ng/mL | Stability, Accuracy (RE%) vs nominal concentration [2, 15]: 0.38% | Stability, measured concentration Mean ± SD [2, 15]: 401.50 ± 27.46 ng/mL | Stability, Accuracy (RE%) vs nominal concentration [2, 16]: 1.80% | Stability, measured concentration Mean ± SD [2, 16]: 0.25 ± 0.01 ng/mL | Stability, Accuracy (RE%) vs nominal concentration [2, 17]: −0.36% | Stability, measured concentration Mean ± SD [2, 17]: 74.73 ± 1.64 ng/mL | stability of plasma samples ([2]; room temperature 8 h, autosampler 24 h after processing, −80 °C 30 days, freezing and thawing three times): stable | P-gp interaction (P-glycoprotein (P-gp); in vitro studies): substrate and inhibitor | water solubility ([3]; solubility is related to PH): poorly water-soluble | half-life [5]: 24 h | MRP2 interaction [6]: substrate and inhibitor | AUC0–72h reduced by [4, 22]: 44.9% | AUC0–∞ reduced by [4, 22]: 41.3% | Cmax reduced by [4, 22]: 42.2% | Vz higher by [4, 22]: 97.1% | increase in CL [4, 22]: 69% | AUC(0-inf) [4, 23]: 4180 ± 1040 ng·h/mL | AUC(0-t) [4, 23]: 4150 ± 1040 ng·h/mL | Cmax [4, 23]: 171 ± 38 ng/mL | Tmax [4, 23]: 8 h | half-life [4, 23]: 9.36 ± 2.09 h | AUC(0-inf) [4, 24]: 2460 ± 544 ng·h/mL | AUC(0-t) [4, 24]: 2280 ± 322 ng·h/mL | Cmax [4, 24]: 99 ± 19.3 ng/mL | Tmax [4, 24]: 11 h | half-life [4, 24]: 12.4 ± 12.7 h | CLz ([4]; TEL 4 mg/kg oral, alone): 16.7 ± 3.5 mL/min/kg | CLz ([4]; TEL 4 mg/kg oral, with LEN (1.2 mg/kg)): 28.2 ± 5.83 mL/min/kg
